Experimental findings from PubChem BioAssay (NCI) are described below.

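All cell lines were grown in 96-well plates and treated with compound for 48 hours. The concentration for full growth arrest is given as TGI.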

Test systems include MALME-3M melanoma; SF-539 CNS; U251 CNS; MCF7 breast; OVCAR-4 ovarian.
Experiment in all cases: DTP human tumour cell line panel, 48 h

For orientation: TGI means the concentration giving total growth inhibition. Read a low TGI as more potent growth arrest. Take `CC1=C(C2=C(C)C(=O)C(=O)c3cc(C)ccc32)c2ccc(C)cc2C(=O)C1=O`: the TGI in the experiment on MALME-3M melanoma worked out at 0.435 µM; with SF-539 CNS, 0.346 µM; with U251 CNS, 0.685 µM.

For `CC(C)CCCC(C)[C@H]1CC[C@H]2[C@@H]3CC[C@H]4C[C@@H](CCC=C(c5cc(Cl)c(O)c(C(=O)OC(C)(C)C)c5)c5cc(Cl)c(O)c(C(=O)OC(C)(C)C)c5)CC[C@]4(C)[C@H]3CC[C@]12C` (some centres undefined), the TGI with MCF7 breast, in the experiment with OVCAR-4 ovarian, with SF-539 CNS and in the experiment with U251 CNS was more than 50 µM each time.

Take `COc1cc(/C=C2\N=C(c3ccccc3)N(C3Nc4cc5c(cc4S3)NC(N3C(=O)/C(=C/c4cc(OC)c(OC)c(OC)c4)N=C3c3ccccc3)S5)C2=O)cc(OC)c1OC` (centres undefined): the total growth inhibition concentration (TGI) in the experiment on MCF7 breast, in the experiment on OVCAR-4 ovarian, with SF-539 CNS and in the experiment with U251 CNS was more than 100 µM each time.

As for `C#CC(O)/C=C/CCCCCCC#CC/C=C\CC#CCCCCCC/C=C/C(O)C#C` (centres undefined), the TGI in the experiment with MCF7 breast is 25.9 µM; in the experiment with OVCAR-4 ovarian it was 10.1 µM; with SF-539 CNS it was 41.2 µM; with U251 CNS it was 26 µM.

On to `c1ccc2nc3[nH]c4ccccc4c3cc2c1`, for which the TGI stood at 2.12 µM in the experiment with MALME-3M melanoma, 2.79 µM with OVCAR-4 ovarian, 1.23 µM in the experiment with SF-539 CNS and 1.99 µM in the experiment on U251 CNS.

With `C=CC1OC(CCCOC(=O)C(C)(C)C)O[C@@H]1CC` (some centres undefined), the TGI in the experiment with MCF7 breast, in the experiment on OVCAR-4 ovarian, with SF-539 CNS and with U251 CNS was more than 100 µM each time.

With `O=C1CC(Br)c2c(Cl)sc(Cl)c21` (centres undefined), the TGI in the experiment on MALME-3M melanoma was 25.6 µM; in the experiment on MCF7 breast, 13.8 µM; in the experiment with SF-539 CNS, more than 100 µM; in the experiment on U251 CNS, 10.4 µM.

On to `CCCCCCOc1ccc(NC2=C(Cl)C(=O)c3cccnc3C2=O)cc1`, for which the TGI is 4.85 µM in the experiment on MALME-3M melanoma, 2.65 µM in the experiment with MCF7 breast, 4.19 µM in the experiment with SF-539 CNS and 7.29 µM in the experiment on U251 CNS.

Turning to `O=C(O)Cc1ccc(N2N=C(c3ccccc3)CC2=O)cc1`, the total growth inhibition concentration (TGI) with MALME-3M melanoma, in the experiment with MCF7 breast, in the experiment on OVCAR-4 ovarian and in the experiment on U251 CNS was more than 100 µM throughout.

In the case of `OC(c1cccs1)c1cc2ccccc2s1` (centres undefined), the total growth inhibition concentration (TGI) in the experiment with MCF7 breast, in the experiment on OVCAR-4 ovarian, with SF-539 CNS and in the experiment on U251 CNS was more than 10 µM each time.

Consider `COC(=O)C1OC(O[C@H]2CC[C@]3(C)[C@H]4CC=C5[C@@H]6CC(C)(C)CC[C@]6(C(=O)OC)[C@H](O)C[C@@]5(C)[C@]4(C)CC[C@H]3C2(C)C)C(O)C(O)C1O` (some centres undefined), for which the concentration for total growth inhibition (TGI) in the experiment with MALME-3M melanoma is 25.4 µM; in the experiment with MCF7 breast, 23.5 µM; in the experiment on OVCAR-4 ovarian it was 19.7 µM; with U251 CNS, 23.9 µM.

For `C=C(C)CCC1CCCCC(CN(C)C)C1=O` (centres undefined), the TGI in the experiment on MCF7 breast, with OVCAR-4 ovarian, with SF-539 CNS and in the experiment on U251 CNS was more than 100 µM each time.

Consider `Cc1ccc(/C=C2\NC(=S)N(CN3CCOCC3)C2=O)cc1`, for which the TGI with MALME-3M melanoma, with MCF7 breast, in the experiment on OVCAR-4 ovarian and in the experiment on U251 CNS was more than 100 µM in each case.

With `OCCCSc1ccccc1SCCCO`, the TGI in the experiment on MCF7 breast, with OVCAR-4 ovarian, in the experiment with SF-539 CNS and in the experiment on U251 CNS was more than 100 µM throughout.

As for `COC1=CC(=O)C(O)=C(C[C@@]2(C)[C@@H]3CCC[C@H](COC(=O)CCCCCNC(=O)OC(C)(C)C)[C@@]3(C)CC[C@@H]2C)C1=O`, the total growth inhibition concentration (TGI) in the experiment on MALME-3M melanoma, in the experiment on MCF7 breast, in the experiment with OVCAR-4 ovarian and in the experiment on U251 CNS was more than 10 µM throughout.

For `COC1(OC)N=C(N)C2(C#N)C(C)CC(=O)N(N(C)C)C12C#N` (centres undefined), the TGI with MALME-3M melanoma, in the experiment with MCF7 breast, in the experiment on SF-539 CNS and in the experiment on U251 CNS was more than 100 µM each time.

Regarding `O=C1CN(c2ccc(Cl)cc2)C(=O)CN1CCN1CC(=O)N(c2ccc(Cl)cc2)CC1=O`, the TGI in the experiment on MALME-3M melanoma, in the experiment on MCF7 breast, in the experiment with OVCAR-4 ovarian and in the experiment with U251 CNS was more than 100 µM each time.

As to `Cn1c(C(C#N)c2cc(Cl)ncn2)nc2ccccc21` (centres undefined), the total growth inhibition concentration (TGI) in the experiment on MALME-3M melanoma, in the experiment with OVCAR-4 ovarian, in the experiment with SF-539 CNS and in the experiment with U251 CNS was more than 100 µM each time.

`Oc1ccc2c(c1)OCC(O)(c1ccccc1O)C2` (centres undefined): the concentration for total growth inhibition (TGI) with MCF7 breast, with OVCAR-4 ovarian, in the experiment on SF-539 CNS and with U251 CNS was more than 100 µM throughout.

In the case of `NC(=O)c1n[nH]n(-c2ccccc2)c1=O`, the TGI in the experiment on MALME-3M melanoma, with MCF7 breast, in the experiment with SF-539 CNS and with U251 CNS was more than 100 µM in each case.
